“Also recorded” adds a separate entry of the source.
What was measured:
[1] = tested on: K+ currents of small diameter trigeminal ganglion neurons (sdTGNs); experiment: whole-cell voltage-clamp of K+ currents in sdTGNs; type: cell-based, rat
Protocol: The nitenin analogue compounds of the present application were first obtained from the marine sponge Spongia agaracina captured in Sagres, Portugal, but have also been chemically synthesized.
For the electrophysiological recordings of the ex vivo material, voltage-clamp recordings were performed on neurons isolated from rat DRGs (and TGs). Recordings were performed from the soma that often contained the proximal fraction of axon, 1 hour after the end of the cell isolation process (includes enzymatic and mechanical treatment).

[2] = tested on: CCI rats (chronic constriction of the sciatic nerve of Wistar rats); experiment: neuropathic pain rat model CCI, von Frey filaments; type: in vivo
Excerpt: FIG. 4 illustrates behavioral readouts as measures of pain during treatment with nitenin on a Neuropatic pain rat model CCI (Chronic constriction injury). Typical experiment using a group of Wistar rats subjected to four unilateral sciatic nerve constrictions. Values refer to the mechanical sensitivity to stimulation using calibrated von Frey Filaments, and consequently reflecting hyperalgesia when hypersensitive (black filled markers—ipsilateral, operated leg; Open markers—contralateral, uninjured leg). Dotted line refers to the average value of the ipsilateral paw prior to surgery. a) Induction of the model showing that 3 days after operation, the mechanical sensitivity of the ipsilateral limb increases markedly, whereas the one associated with the contralateral leg remained unchanged, similar to baseline values. This tendency is maintained during 26 days after surgery, day that treatment with nitenin was performed (circle with dotted line). b) Effect of intravenous injection of nitenin (estimated plasma concentration of 1 μg/ml) on the mechanical sensitivity of the ipsilateral leg. For clarity, the data of the contralateral limb is not shown but it remains unaltered. […]
For efficacy studies, nociception was assessed in all animals from all pain models by regular behavioural monitoring, by quantifying the sensitivity to mechanical stimuli with Von Frey filaments, and consequently reflecting hyperalgesia when hypersensitive. […] Intraperitoneal administration was tested in CFA rats (23 days after CFA injection), with 10 times the nitenin quantity administered by I.V. injections. […]

In the case of `C/C(=C\C1C/C(=C/CCc2ccoc2)C(=O)O1)CCCc1ccoc1` (stereo not shown) [nitenin], the “effect on K+ currents from sdTGNs” value [1] is reported as “inhibited the K^+ currents”, the “behavioural scores of the contralateral (uninjured) paw” value ([2]; I.V. 1 μg/mL of blood) is reported as “no changes” and the “mechanical sensitivity of ipsilateral paw (von Frey)” value ([2]; I.V. 1 μg/mL of blood ~0.06 mg/Kg, acute (3 days) and chronic (22 to 31 days)) is reported as “reaching values not different to those obtained during baseline; also recorded: noticeable decrease of sensitivity to mechanical stimuli”. The “time of maximum effect after injection” value ([2]; intravenous, estimated plasma concentration 1 μg/ml, 26 days after surgery) was ~1 h.

From patent US12336977B2, “Nitenin analogue compounds and their use in the treatment of chronic and acute pain” (SEA4US-BIOTECNOLOGIA E RECURSOS MARINHOS, LDA., priority 2019, dated 2025)
